According to PMC6093421, “Identification and characterization of terpene synthase genes accounting for volatile terpene emissions in flowers of Freesia x hybrida” (Journal of Experimental Botany, 2018):

System: T1, FhTPS7
T1 construct: gene TPS7; full-length ORF (570 residues, no transit peptide, TPS-a clade) in pET-32a, E. coli BL21 (DE3), Ni-purified
Assay: GC-MS of hexane-extracted products, Michaelis-Menten non-linear fit
Format: biochemical, Freesia x hybrida
Details: 25 mM HEPES pH 7.4, 15 mM MgCl2, 5 mM DTT, 30 °C, 20 min
Description: GC-MS of hexane-extracted products, Michaelis-Menten non-linear fit on FhTPS7

| Compound | Km (GPP 3–270 μM) | Km (FPP 1–135 μM) |
| --- | --- | --- |
| CC(C)=CCC/C(C)=C/COP(=O)(O)OP(=O)(O)O [GPP, geranyl diphosphate] | 3.71 ± 0.19 µM |  |
| CC(C)=CCC/C(C)=C/CC/C(C)=C/COP(=O)(O)OP(=O)(O)O [FPP, farnesyl diphosphate] |  | 5.01 ± 0.21 µM |
